Laboratory results as given in patent publication US12390451B2, “Small molecule inhibitor of the JAK family of kinases” (Janssen Pharmaceutica NV, priority 2021, dated 2025).
Where two headings read alike, the source gives them in different places.

Tested on: IL-12/IL-18-induced pSTAT-3 in the colon
Experiment: IL-12/IL-18-induced colonic pSTAT-3 response in mice after oral dosing
Format: in vivo, C57BL/6 mice
Settings: Mus musculus, read-out: Percent Inhibition of colonic pSTAT-3
Source text: To understand the potential of local, enteric-selective JAK inhibitors to inhibit STAT signaling in colon tissue, two pharmacokinetic/pharmacodynamic (PK/PD) studies were developed. The first involved the combined intraperitoneal administration of IL-12 and IL-18 in mice which induces a systemic inflammatory response resulting in activation of the JAK/STAT pathway in colonic tissue which can be monitored by robust phosphorylation of STAT3 three hours after challenge. The second PK/PD model involves the ex vivo stimulation of mouse colon tissue with a cocktail of cytokines (IL-22, IL-6, and IFNα), measuring the inhibition of STAT3 phosphorylation after oral dosing of compound of Formula I.
The combined intraperitoneal administration of IL-12 and IL-18 induces colonic inflammation in mice (Chikano S, et al. Gut 47(6),779-786 (2000) “IL-18 and IL-12 induce intestinal inflammation and fatty liver in mice in an IFN-gamma dependent manner”; Nold-Petry C, et al. Front Immunol. 8, 1531(2017) “Gp96 Antagonist Protects in Murine-Intestinal-Inflammation”). An inflammatory response in colonic tissue can be monitored by robust phosphorylation of STAT3 three hours after challenge with IL 12/IL-18. In this non-GLP study, the effect of the orally administered compound of Formula I was evaluated on STAT3 responses in mouse colonic tissue induced by systemic dosing of both IL-12 and IL 18.
C57BL/6 mice (6 to 8 weeks old) were randomized by weight and assigned to various treatment groups for each of two studies. Mice were challenged intraperitoneally with a combination of IL-12 (250 ng) and IL-18 (1 μg). To examine the effect of compound of Formula I on IL-12/IL-18-induced pSTAT-3 response, groups of mice were orally dosed with compound of Formula I 1 hour prior to IL-12/IL-18 challenge. Three hours after IL-12/IL-18 challenge, mice were euthanized with CO2 asphyxiation, blood was collected via cardiocentesis for PK analysis, and colon tissues were collected for measuring pSTAT-3 response and drug levels. Mice dosed orally with 20% 2-hydroxypropyl-β-cyclodextrin (HP-β-CD) were used as vehicle controls. Two independent studies (S-1 and S-2) were conducted to examine the effect of compound of Formula I on IL-12/IL-18-induced colonic pSTAT-3 response in mice. […] Serum levels were measured at 30 minutes and 4 hours (terminal) after dosing. […] Colon drug levels were measured 4 hours after dosing. […] Colonic exposure of compound of Formula I increased in a dose-dependent fashion. At 25 mg/kg dose, colonic exposure of compound of Formula I was 30814.5±5552.5 ng/g and 18256.5±4118.8 ng/g tissue. […] Oral dosing of compound of Formula I in mice resulted, as shown in other studies, in minimum systemic exposure and lack of consistent dose-dependent pharmacodynamic responses in the blood.
Percent inhibition of colonic pSTAT-3 was determined using log transformed data following outlier removal.

Work on `CC(C)(O)CNC(=O)Cc1nc2cnc3[nH]ccc3c2n1[C@H]1CC[C@H](CC#N)CC1` [Compound of Formula I, 2-(1-((1r,4r)-4-(Cyanomethyl)cyclohexyl)-1,6-dihydroimidazo[4,5-d]pyrrolo[2,3-b]pyridin-2-yl)-N-(2-hydroxy-2-methylpropyl)acetamide] yielded an inhibition at 10 mg/kg (Study S-1, oral 10 mg/kg) of 3.9%, an inhibition at 25 mg/kg (Study S-1, oral 25 mg/kg) of 25.8% and an inhibition at 50 mg/kg (Study S-1, oral 50 mg/kg) of 49.7%. The inhibition at 10 mg/kg (Study S-2, oral 10 mg/kg) was 33.1%, the inhibition at 25 mg/kg (Study S-2, oral 25 mg/kg) was 61.2% and the inhibition at 50 mg/kg (Study S-2, oral 50 mg/kg) was 66.1%.
